Earlier results as cited in patent US20220273584A1, “Film Formulation Comprising Carriers” (Klaria Pharma Holding AB, priority 2019, published 2022).

Details: at a concentration of 1-10%

permeability with porcine buccal epithelium: enhanced permeability
Structure (SMILES): CCCCCCCC/C=C\CCCCCCCC(=O)O [Oleic acid, oleic acid]
